Data on nine compounds can be found in patent US20190313678A1, “SUGAR-DIPEPTIDE CONJUGATES AS FLAVOR MOLECULES” (NESTEC S.A., priority 2016, published 2019).

SMILES strings stand for the structures. “Also recorded” adds a separate entry of the source.

For assay [1] the following is noted: cited from earlier work; for orosensation effect of subthreshold concentrations: together with L-glutamic acid and sodium and/or potassium ions, Dunkel and Hofmann 2009.
Assay [2] is described as follows: Sensory evaluation of the compounds in water. Particulars: 2 g/L in water; 12 panelists. The protocol:
The compounds ornithine, ornithyl-β-alanine, 1-deoxy-D-fructosyl-N-ornithine, 1-deoxy-D-fructosyl-N-ornithyl-β-alanine and 1-deoxy-2-pentulofuranos-1-yl-Ornithine (Rib-Orn) were each dissolved and diluted in water in a final concentration of 2 g/L. The solutions were then evaluated by 12 panelists, which were previously screened and selected for their sensory abilities.

The nature of assay [3]: Sensory evaluation of the compounds in a chicken soup base. Particulars: for flavor impact in chicken soup base versus reference soup: ANOVA/LSD, alpha 5%; for Sensory inpact on chicken soup: chicken soup base, compounds added at 2 and 0.25 g/L, 12 panelists. The method, then:
Chicken soups were prepared by dissolving 6 g chicken base powder (detailed recipe shown in Table 1), 1 g monosodium glutamate and 1 g of sodium chloride in 500 mL hot water. 1-Deoxy-D-fructosyl-N-ornithyl-β-alanine, N-ornithyl-β-alanine, 1-deoxy-D-fructosyl-N-ornithine or alternatively 1-deoxy-2-pentulofuranos-1-yl-Ornithine (Rib-Orn) were then added separately at 2 and 0.25 g/L final concentrations.
The sensory evaluation was carried out by 12 panelists, previously screened for their sensory abilities. The panelists assessed a maximum of 6 samples per session. They had Vittel water and crackers as mouth cleansers. In all the cases, the panelists were instructed to evaluate the samples for the following attributes: overall flavor persistency, meaty, grilled/popcorn-like, bread-like, sweet, bitter, and salty. The samples were coded with random 3-digit numbers according to a balanced presentation design, heated at approximately 65° C. and then presented in 40 ml brown plastic containers and under red light to minimize appearance bias (the serving was approximately 25 ml per sample).
The following statistical tests were used to analyze the sensory raw data: First, the Analysis of Variance (ANOVA) with two factors, products (fixed factor) and subject (random factor) was computed in order to determine if there was any difference among samples. The limit of significance (alpha risk) was set at 5%. […] The limit of significance (alpha risk) was set at 5%.

A short description of assay [4]: Tomato soups with added compound (seasoning compositions). Particulars: 2 g/L in tomato soup. The method, then:
Tomato soups can be prepared by dissolving 6 g tomato base powder as can be obtained in the commerce in 500 mL hot water. 1-deoxy-D-fructosyl-N-ornithine or alternatively 1-Deoxy-D-fructosyl-N-ornithyl-β-alanine can be added at a concentration of 2 g/L to the soups in order to improve their taste and flavor profile.

Assay [5] can be described thus: Comparison of soup bases containing Fru-orn versus the mixture of glucose and ornithine. Particulars: 2 g/L (6.82 mmol/L), 6 panelists. The method, then:
A first soup was prepared by adding 2 g/L (6.82 mmol/L) 1-deoxy-D-fructosyl-N-ornithine in the soup base described above. A second soup was prepared by adding same molar concentration of glucose and ornithine. The solutions were then evaluated by 6 panelists following the same procedure than described above.

For `NCCC[C@H](N)C(=O)NCCS(=O)(=O)O` [L-ornithinyltaurine], the “bitter masking effects against potassium salts” value in assay [1] (J. P. Ley 2008) is recorded as “bitter masking effects”. Further, the taste produced entry in assay [1] (Tamura et al. 1989) is on record as “salty taste”.

Regarding `NCCC[C@H](N)C(=O)O` [Orn, L-ornithine], in assay [1] (J. P. Ley 2008), the “off-taste inhibition in combination with bitter branched chain amino acids” value is recorded as “off-taste inhibitor”.

For `NCCC(=O)NCC(=O)O` [β-alanylglycine], the “orosensation effect of subthreshold concentrations” value (“orosensation effect” below) in assay [1] was “enhance the typical thick-sour orosensation and white-meaty character”.

Regarding `NCCC(=O)N[C@@H](Cc1cnc[nH]1)C(=O)O` [L-carnosine], the “orosensation effect” value in assay [1] is “enhance the typical thick-sour orosensation and white-meaty character”.

For `N[C@@H](CCCNCC1(O)OC[C@@H](O)[C@H]1O)C(=O)O` (stereo partly shown) [Rib-Orn, 1-deoxy-2-pentulofuranos-1-yl-ornithine], in assay [2], the “Flavour property in water (2 g/L)” value is “astringent, sour, metallic and slightly sweet; also recorded: Astringent,”. Also, the “flavor impact in chicken soup base versus reference soup” value in assay [3] (0.25 g/L) was “both baked bread flavor and umami taste were significantly enhanced”. Further, the “Sensory inpact on chicken soup” value in assay [3] is listed as “Grilled/bread,; also recorded: umami”.

In the case of `NCCC[C@H](N)C(=O)NCCC(=O)O` [Orn-ala, N-ornithyl-β-alanine, reference compound], in assay [2], the “Flavour property in water (2 g/L)” value is “astringent”. Further, the “flavor impact in chicken soup base versus reference soup” value in assay [3] (2 g/L) was “no statistically significant differences”. Further, in assay [3], the “Sensory inpact on chicken soup” value is on record as “none”. The “bitter masking effects against potassium salts” value in assay [1] (J. P. Ley 2008) is on record as “bitter masking effects”.

Regarding `N[C@@H](CCCNCC1(O)OC[C@@H](O)[C@@H](O)[C@@H]1O)C(=O)NCCC(=O)O` (stereo partly drawn) [Fru-Orn-βala, 1-deoxy-D-fructosyl-N-ornithyl-β-alanine], the “Flavour property in water (2 g/L)” value in assay [2] is “sweet, bread”. Further, in assay [3] (2 g/L each), the “grilled and bread attributes of chicken soup versus soup with orn-ala” value was “enhanced significantly; also recorded: increases the desired grilled meat and bread flavor note”; the “overall flavor persistency of chicken soup versus soup with orn-ala” value was “significantly different”; the “perceived bitterness of chicken soup versus soup with orn-ala” value was “significantly decreasing; also recorded: reducing overall bitterness”. The “Sensory inpact on chicken soup” value in assay [3] is given as “grilled/popcorn,; also recorded: bread, saltiness”. Moreover, in assay [4], the “grilled savory flavor of tomato soup versus reference soup” value is recorded as “more pronounced grilled savory flavor” and the “perceived saltiness of tomato soup versus reference soup” value is recorded as “slightly more salty”.

As to `N[C@@H](CCCNCC1(O)OCC(O)C(O)C1O)C(=O)O` (stereo partly drawn) [Fru-Orn, 1-deoxy-D-fructosyl-N-ornithine], the “Flavour property in water (2 g/L)” value in assay [2] is “salty”. Besides, the “flavor impact in chicken soup base versus reference soup” value in assay [3] (0.25 g/L) is listed as “bread flavors were significantly perceived”. In assay [3] (2 g/L), the “flavor impact in chicken soup base versus reference soup” value is “grilled meat flavor and saltiness were significantly enhanced”. The “Sensory inpact on chicken soup” value in assay [3] is reported as “grilled/popcorn,; also recorded: bread, saltiness”. Besides, in assay [5] (tasted with nose-clip), the “saltiness versus soup with same molar concentration of glucose and ornithine” value is “more salty”. For the same compound, the “chicken flavor versus soup with same molar concentration of glucose and ornithine” value in assay [5] (tasted without nose-clip) is “greater chicken flavor”. Also, in assay [4], the “grilled savory flavor of tomato soup versus reference soup” value is listed as “more pronounced grilled savory flavor” and the “perceived saltiness of tomato soup versus reference soup” value is reported as “slightly more salty”.

Regarding `Cn1cncc1C[C@H](NC(=O)CCN)C(=O)O` [L-anserine], the “orosensation effect” value in assay [1] was “enhance the typical thick-sour orosensation and white-meaty character”.
